Consider 78 molecules from US20070037785A1, “Novel dipeptidyl peptidase IV inhibitors used for functionally influencing different cells and treating immunological, infammatory, neuronal, and other diseases” (priority 2003, published 2007).

The first experiment deals with dipeptidyl peptidase IV (Homo sapiens, UniProt P27487). In words: biochemical. The note with it: values marked with "*" are ID50 values; read-out: IC50DPIV, values marked with "*" = ID50.
Sequence of dipeptidyl peptidase IV (P27487 whole entry, species assumed): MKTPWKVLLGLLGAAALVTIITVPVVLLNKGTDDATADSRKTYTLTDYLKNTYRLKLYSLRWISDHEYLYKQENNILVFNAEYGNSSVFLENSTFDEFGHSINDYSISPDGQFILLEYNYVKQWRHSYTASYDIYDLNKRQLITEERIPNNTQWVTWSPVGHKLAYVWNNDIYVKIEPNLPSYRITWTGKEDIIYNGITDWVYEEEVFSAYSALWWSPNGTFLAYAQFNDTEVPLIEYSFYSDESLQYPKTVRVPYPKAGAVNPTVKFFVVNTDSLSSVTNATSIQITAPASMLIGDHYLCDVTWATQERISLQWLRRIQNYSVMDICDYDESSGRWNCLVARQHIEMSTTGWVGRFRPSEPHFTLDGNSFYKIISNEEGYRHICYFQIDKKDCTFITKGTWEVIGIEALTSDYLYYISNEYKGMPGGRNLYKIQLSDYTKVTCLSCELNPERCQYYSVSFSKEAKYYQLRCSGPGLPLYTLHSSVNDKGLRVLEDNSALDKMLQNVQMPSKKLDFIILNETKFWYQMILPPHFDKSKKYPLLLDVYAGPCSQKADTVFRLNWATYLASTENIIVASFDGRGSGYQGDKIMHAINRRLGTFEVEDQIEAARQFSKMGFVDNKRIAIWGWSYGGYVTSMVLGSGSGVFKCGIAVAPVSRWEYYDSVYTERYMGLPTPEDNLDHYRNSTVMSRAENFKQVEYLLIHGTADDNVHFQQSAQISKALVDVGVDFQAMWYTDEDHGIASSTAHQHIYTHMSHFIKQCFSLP
Regarding `CC1=C(C(=O)Nc2ccccc2)C(c2ccccc2Cl)c2c(sc(C(=O)c3ccc(Cl)cc3)c2N)N1` (stereo not drawn) [D3.093], the IC50 came out at 112 µM.
The same measure, in the same setting: in the case of `Cc1ccc(C(=O)NC(NC(=S)Nc2sc3c(c2C(N)=O)CCCC3)C(Cl)(Cl)Cl)cc1` (stereo not drawn) [D3.099] it was 169 µM; in that of `Cc1ccc(-n2c(SCC(=O)c3ccccc3)nc3sc4c(c3c2=O)CC(C(C)C)OC4)cc1` (stereo not drawn) [D3.102], 209 µM; in that of `COc1ccc2nc(NC(=O)COC(=O)CN3C(=O)c4ccccc4C3=O)sc2c1` [D3.103], 224 µM.
Consider `C=CCOC(=O)C1=CS(=O)(=O)c2ccccc21` [D3.105], for which the IC50 was found to be 252 µM.
In the case of `CC(=O)Oc1ccc(-n2c(=O)c3ccccc3c3ccccc3c2=O)cc1` [D3.107], the IC50 stood at 268 µM.
As for `CSc1nc2sc3c(c2c2nnc(SCc4cccc(OC(C)C)c4)n12)CC(C)(C)OC3` [D3.108], the IC50 was 269 µM.
With `O=C(N/N=C/c1cc(Br)ccc1OC(=O)c1ccc([N+](=O)[O-])cc1)/C(=C\c1ccc2c(c1)OCO2)NC(=O)c1ccccc1` [D3.109], the IC50 turned out to be 272 µM.
Regarding `Cc1ccccc1NC(=O)c1cc2c3c(c1)C1C=CCC1CN3CC1CC=CC21` (stereo not drawn) [D3.110], the IC50 came out at 279 µM.
Same read-out and setting: the figure for `COc1ccc(NC(=O)CSc2nnc3n2-c2sc4c(c2C(=O)C3CCc2ccccc2)CC(C)(C)OC4)cc1` (stereo not drawn) [D3.111] is 284 µM.
With `COc1ccc(-n2c(=O)c3c4c(sc3n3c(SCc5ccc(Br)cc5)nnc23)COC(C)(C)C4)cc1` [D3.113], the IC50 stood at 317 µM.
On to `O=C1c2sc3nnc(-c4ccccc4)c(=O)n3c2C(=O)N1c1ccccc1` [D3.114], for which the IC50 amounted to 332 µM.
Still for that read-out and setting: the figure for `CCOC(=O)c1c(NC(=O)CSc2nc(=O)cc(N)n2-c2cccc(C)c2)sc2c1CCC2` [D3.116] is 363 µM; for `Nc1ccc(C(=O)NNC(=O)c2ccc(N3C(=O)c4ccc(C(=O)NNC(=O)c5ccc([N+](=O)[O-])cc5)cc4C3=O)cc2)cc1` [D3.117] it is 402 µM.
`Nc1nc2ccc(S(=O)(=O)c3ccc4nc(N)sc4c3)cc2s1` [D3.118]: the IC50 worked out at 417 µM.
In the case of `Cc1ccc(N2C(=O)C3CC(c4ccccc4)=C4C5C=CC(C6C(=O)N(c7ccc(C)cc7C)C(=O)C56)C4C3C2=O)c(C)c1` (stereo not drawn) [D3.119], the IC50 worked out at 527 µM.
Turning to `COc1ccc(N2C(=O)CSCC2=O)cc1OC` [D4.004], the IC50 turned out to be 3.1 µM.
Same read-out and setting: the figure for `COc1cc(OC)cc(N2C(=O)CSCC2=O)c1` [D4.005] is 3.8 µM.
Same read-out and setting: the figure for `CCC(=O)Oc1cccc(N2C(=O)C3C4C=CC(C3C2=O)C2C(=O)N(c3cccc(OC(=O)CC)c3)C(=O)C42)c1` (stereo not drawn) [D4.006] is 4.2 µM.
Consider `CC(=O)Nc1ccc(Nc2ccc(N3C(=O)CCCC3=O)cc2[N+](=O)[O-])cc1` [D4.079], for which the IC50 was 71.3 µM.

The same experiment, now with this note: values without "*" = IC-50; read-out: IC50DPIV.
Regarding `CC1CCc2c(sc(NC(=O)C(C(F)(F)F)C(F)(F)F)c2C#N)C1` (stereo not drawn) [D3.080], the IC50 turned out to be 59.8 µM.
`O=C(N/N=C/c1cc(Br)c(O)c(Br)c1O)/C(=C\c1ccc2c(c1)OCO2)NC(=O)c1ccccc1` [D3.081]: the IC50 was determined as 60 µM.
For `Cn1cnnc1SCC(=O)OCN1C(=O)c2ccccc2C1=O` [D3.083], the IC50 turned out to be 62.4 µM.
Consider `CSc1nc2sc3c(c2c(=O)n1-c1cccc(C)c1)CC(C)(C)OC3` [D3.088], for which the IC50 is 80.6 µM.
Still for that read-out and setting: in the case of `CNc1nc2c(c(=O)[nH]c(=O)n2C)n1Cc1ccccc1Cl` [D3.091] it was 27.8 µM; in that of `CC(C)(C)C1CCc2c(sc(NC(=O)C(C(F)(F)F)C(F)(F)F)c2C#N)C1` (stereo not drawn) [D3.092], 101 µM; in that of `Cc1ccc2nc(-c3ccc(N4C(=O)CC(N5CCC(C)CC5)C4=O)cc3)sc2c1` (stereo not drawn) [D3.094], 116 µM.
For `O=[N+]([O-])c1ccc(C2OCN3COCC23)cc1` (stereo not drawn) [D3.095], the IC50 is 42.4 µM.
With `Cc1cc(-c2ccc(/C=C(\C#N)c3nc4ccccc4[nH]3)o2)ccc1[N+](=O)[O-]` [D3.096], the IC50 was found to be 138 µM.
With `CCOc1ccc(/C=N/NC(=O)c2cc(-c3c(OC)ccc4ccccc34)n[nH]2)cc1` [D3.100], the IC50 is 56.3 µM.
In the case of `O=C1CCCC(=O)N1c1ccc(N2CCc3ccccc3C2)c([N+](=O)[O-])c1` [D3.104], the IC50 was 28.8 µM.
Same read-out and setting: the figure for `N#CC1=C(N)C(C#N)(C#N)C(c2ccccc2)C2CNCC=C12` (stereo not drawn) [D4.007] is 6.9 µM.
`N#CC1=C(N)C(C#N)(C#N)C(c2ccccc2F)C2CNCC=C12` (stereo not drawn) [D4.009]: the IC50 was found to be 7.4 µM.
For `Cc1cccc(C2N(CC(C)C)CC(C(=O)c3c(C)cccc3C)N2CCCN2CCCC2=O)c1` (stereo not drawn) [D4.010], the IC50 amounted to 7.5 µM.
In the case of `O=C1CSCC(=O)N1c1cc(Cl)cc(Cl)c1` [D4.011], the IC50 was 8.5 µM.
For `Nc1nonc1-n1nnc(C(=O)NN=C2c3ccccc3-c3ccccc32)c1-c1ccccc1` [D4.013], the IC50 was 10.1 µM.
With `CCOC(=O)c1ccc(N2C(=O)CSCC2=O)cc1` [D4.015], the IC50 was 12.2 µM.
With `O=C1C=C(c2cccc([N+](=O)[O-])c2)C(=O)N1c1ccc(Cl)cc1` [D4.016], the IC50 turned out to be 12.3 µM.
The same measure, in the same setting: the figure for `CCOC(=O)CN(Cc1ccccc1)c1ccc(N2C(=O)CCCC2=O)cc1[N+](=O)[O-]` [D4.017] is 13.5 µM; for `CCCn1c(N2CCN(CC(=O)c3c(C)n(C)c4ccccc34)CC2)nc2c1c(=O)[nH]c(=O)n2C` [D4.019] it is 15.2 µM.
Turning to `CCCC(=O)O/N=C1\C(=O)N(c2ccccc2)c2ccccc21` [D4.020], the IC50 came out at 15.2 µM.
As to `COC(=O)C(CC(C)C)Nc1ccc(N2C(=O)CCCC2=O)cc1[N+](=O)[O-]` (stereo not drawn) [D4.021], the IC50 came out at 15.4 µM.
Consider `CC(=O)Oc1cccc(N2C(=O)c3ccc(C(=O)NCc4ccc(C(=O)O)cc4)cc3C2=O)c1` [D4.023], for which the IC50 came out at 18.2 µM.
Take `COc1ccc(N2CCN(c3nc4c(c(=O)[nH]c(=O)n4C)n3Cc3ccccc3)CC2)cc1` [D4.024]: the IC50 came out at 19.2 µM.
Same read-out and setting: the figure for `Cc1cc(Nc2ccc(N3C(=O)CCCC3=O)cc2[N+](=O)[O-])no1` [D4.025] is 20 µM; for `O=C1c2ccc(Oc3ccc([N+](=O)[O-])cc3[N+](=O)[O-])cc2C(=O)N1c1ccccc1` [D4.028] it is 20.6 µM.
The same measure, in the same setting: in the case of `NS(=O)(=O)c1ccc(N2C(=O)CCCC2=O)cc1` [D4.030] it was 21 µM; in that of `N#C/C(=C\c1ccc(N2CCCCC2)c([N+](=O)[O-])c1)c1nn(CCO)c(N)c1C#N` [D4.032], 23.6 µM.
As for `COc1ccc(/C=N/n2c(N(C(C)=O)C(C)=O)nc(-c3ccccc3)c2-c2ccccc2)cc1` [D4.034], the IC50 came out at 24.3 µM.
For `O=C1CCCC(=O)N1c1ccc(N2CCN(Cc3ccccc3)CC2)c([N+](=O)[O-])c1` [D4.035], the IC50 turned out to be 24.5 µM.
For `O=C1c2ccc(-c3nc4ccccc4c(=O)o3)cc2C(=O)N1c1ccc(Cc2ccc(N3C(=O)c4ccc(-c5nc6ccccc6c(=O)o5)cc4C3=O)cc2)cc1` [D4.037], the IC50 stood at 27.7 µM.
On the same count and under the same terms, the figure for `COC1CC2=C(CC1OC)CC(C)(C)NC2` (stereo not drawn) [D4.039] is 28.8 µM; for `COc1ccc(Cl)cc1N1C(=O)CSCC1=O` [D4.041] it is 30.7 µM; for `O=C1NCCCCC1Nc1ccc(N2C(=O)CCCC2=O)cc1[N+](=O)[O-]` (stereo not drawn) [D4.044] it is 34.1 µM.
For the molecule `CCOC(=O)c1c(C)oc2c1c1c(c3ccccc32)OCN(C2CCS(=O)(=O)C2)C1` (stereo not drawn) [D4.045], the IC50 worked out at 34.2 µM.
Same read-out and setting: in the case of `CC1=C(C#N)C(=O)N(CCCO)C(=O)/C1=C\c1ccc(-c2cc(C)c(C)cc2[N+](=O)[O-])o1` [D4.046] it was 34.8 µM; in that of `COc1cc(N2C(=O)CSCC2=O)c(Cl)cc1Cl` [D4.047], 35.3 µM.
Still for that read-out and setting: the figure for `CCOCCCNc1ccc(N2C(=O)CCCC2=O)cc1[N+](=O)[O-]` [D4.048] is 36.8 µM.
Still for that read-out and setting: in the case of `CCOC(=O)c1c(C)nn(-c2ccc(N3C(=O)CSCC3=O)cc2)c1C` [D4.049] it was 37.4 µM; in that of `O=C1NC23NC(=O)NC2(N1)c1ccccc1-c1ccccc13` (stereo not drawn) [D4.053], 43.1 µM; in that of `C=CCOC(=O)c1cc(-c2ccc(/C=C3/C(=O)N(CCCO)C(=O)C(C#N)=C3C)o2)ccc1Cl` [D4.054], 44.6 µM.
As to `CC1=C(C#N)C(=O)N(CCc2ccccc2)C(=O)/C1=C/c1ccc(-c2ccc(S(N)(=O)=O)cc2)o1` [D4.057], the IC50 worked out at 48.2 µM.
For `CCCCOC(=O)c1cc(-c2ccc(/C=C3/C(=O)N(CC(C)O)C(=O)C(C#N)=C3C)o2)ccc1Cl` (stereo not drawn) [D4.059], the IC50 came to 49 µM.
Regarding `O=C(Oc1csc(-c2cccnc2)n1)C1CC1` [D4.061], the IC50 is 52.5 µM.
`COc1ccc(CCN(C)c2ccc(N3C(=O)CCCC3=O)cc2[N+](=O)[O-])cc1OC` [D4.062]: the IC50 was 52.6 µM.
As to `O=C1CCCC(=O)N1c1ccc(NCCc2ccc(O)cc2)c([N+](=O)[O-])c1` [D4.064], the IC50 was 54.9 µM.
For `O=C1CCCC(=O)N1c1ccc(NCCOCCO)c([N+](=O)[O-])c1` [D4.065], the IC50 amounted to 55 µM.
Turning to `CCOc1ccc(/C=N/NC(=O)c2cc(-c3c(OC)ccc4ccccc34)n[nH]2)cc1` [D4.068], the IC50 worked out at 56.2 µM.
`CCOC(=O)c1cc(-c2ccc(/C=C3/C(=O)NC(=O)C(C#N)=C3C)o2)ccc1Cl` [D4.069]: the IC50 was found to be 56.7 µM.
For `NC(=O)C1CCN(c2ccc(N3C(=O)CCCC3=O)cc2[N+](=O)[O-])CC1` [D4.070], the IC50 worked out at 57 µM.
For `COc1ccc(C2(N3CCCC3)Oc3ccccc3C(C#Cc3ccccc3)=C2C)cc1` (stereo not drawn) [D4.071], the IC50 is 60.7 µM.
In the case of `C/C(=C\c1ccc(C(C)C)cc1)C1NCC(c2ccc([N+](=O)[O-])cc2)O1` (stereo not drawn) [D4.072], the IC50 came out at 65 µM.
As for `CC(=O)Oc1cccc(N2C(=O)C3C(C2=O)C2(C)C=CC3(C)O2)c1` (stereo not drawn) [D4.073], the IC50 turned out to be 65.6 µM.
`CCOC(=O)c1ccc(-c2ccc(/C=C3\C(=O)N(CCO)C(=O)C(C#N)=C3C)o2)cc1` [D4.074]: the IC50 was 65.9 µM.
On to `O=C1C(N2CCOCC2)=C(Cl)/C(=N/S(=O)(=O)c2ccc(Cl)cc2)C(Cl)(Cl)C1(Cl)Cl` [D4.075], for which the IC50 was determined as 66.6 µM.
On to `COc1ccccc1C1NCC(c2ccc([N+](=O)[O-])cc2)O1` (stereo not drawn) [D4.077], for which the IC50 came to 70.1 µM.
Turning to `CCOC(=O)N1CCN(c2ccc(N3C(=O)CCCC3=O)cc2[N+](=O)[O-])CC1` [D4.078], the IC50 is 70.4 µM.
As for `CC1=C(C#N)C(=O)N(CC(C)O)C(=O)/C1=C/c1ccc(-c2ccc(Br)cc2)o1` (stereo not drawn) [D4.080], the IC50 came out at 73.8 µM.
